# Test results reported in US10543166B2, “Implantable drug delivery devices and methods of making the same” (TARIS Biomedical LLC, priority 2009, dated 2020).
# Columns and labels:
# [1] = In vitro drug release through both the wall and apertures of silicone tube devices; assay type: physicochemical; conditions: in vitro in water at about 37° C
# Method: Another study was performed to investigate the feasibility of delivering drug from a device through both a wall of a drug reservoir and from an aperture in the wall of the drug reservoir. Devices were formed form silicone tubes having a length of about 3 cm. The devices were loaded with solid drug tablets of lidocaine base, for a total payload of about 60 mg. […] The devices were tested in vitro in water at about 37° C.
# [2] = In vitro drug release by diffusion through the wall of silicone tube devices; assay type: physicochemical; conditions: silicone tube ID about 0.060 in, OD 0.076 in, length about 3 cm; solid tablets, payload about 60 mg; no aperture; in vitro in water at about 37° C
# Method: A study was performed to determine the feasibility of delivering drug through the wall of a drug reservoir via diffusion. Devices were formed form silicone tubes having an inner diameter of about 0.060 inches, an outer diameter of 0.076 inches, and a length of about 3 cm. The devices were loaded with solid drug tablets of lidocaine, for a total payload of about 60 mg. Some of the devices included an aperture formed through the tube wall, the aperture having a diameter of 150 μm. These devices were loaded with solid tablets of either lidocaine hydrochloride monohydrate or a combination of lidocaine hydrochloride monohydrate and lidocaine base. […] The devices were tested in vitro in water at about 37° C.
smiles,measurement,setting,value
CCN(CC)CC(=O)Nc1c(C)cccc1C [lidocaine base],effect of apertures on release rate,"[1]; devices with 0, 1 (150 μm), 2, 30 or 60 (360 μm) apertures",release rate can be increased by adding apertures to the device
same,release from a silicone tube without any apertures,"[1]; silicone tubes about 3 cm, solid tablets, payload about 60 mg",can be released from a silicone tube without any apertures
same,delivery of drug via diffusion through a silicone wall without an aperture,[2],feasible to deliver drug via diffusion through a silicone wall without an aperture
